In patent US11401255B2, “Small molecule activators of Parkin enzyme function” (Mayo Foundation for Medical Education and Research, priority 2016, dated 2022):

Target: Parkin (Homo sapiens (Human), UniProt O60260)
Experiment: Thermal shift (protein melting) assay
Format: binding
Settings: 500 nM compound, 50 ng purified Parkin, SYPRO orange
Description: FIGS. 15A-15H show Parkin activation in primary fibroblasts, neuronal cells and in vitro. Positive control (PC) cells were treated with DMSO and 10 μM of CCCP. Negative control (NC) cells were treated with 3.5 μM CCCP, some cells were left untreated (−). […] Vinculin was used as loading control. […] FIG. 15C: Human fibroblasts were directly converted to neurons and treated as in FIG. 15B. […] Beta III tubulin confirmed successful conversion of fibroblasts to iNeurons. FIG. 15D: Rat PC12 cells were treated as in FIG. 15A. Western blots show enhanced ubiquitylation of MFN2 and TOM70, and robust pSer65-Ub induction similar to PC, but not NC cells. FIG. 15E: In vitro E2 discharge assay. Recombinant Parkin was pre-incubated with compound 4 or DMSO as control and was mixed to Ub-loaded UbcH7. […] Control reactions were performed without PINK1 or Parkin. FIG. 15F: In vitro assay with isolated mitochondria from untreated or CCCP-treated HeLa cells lacking Parkin. […]
To validate direct binding of activating compounds to Parkin as predicted from the in silico approach, a thermofluor shift assay was used. Recombinant purified Parkin was mixed together with compound 4 or DMSO as a control and the melting temperature was monitored using SYPRO Orange dye.
The thermal shift assay was performed as follows. […] Data was exported and analyzed using the Protein Melting Analysis tool (Roche Applied Science).

Chain of Parkin (O60260 whole entry): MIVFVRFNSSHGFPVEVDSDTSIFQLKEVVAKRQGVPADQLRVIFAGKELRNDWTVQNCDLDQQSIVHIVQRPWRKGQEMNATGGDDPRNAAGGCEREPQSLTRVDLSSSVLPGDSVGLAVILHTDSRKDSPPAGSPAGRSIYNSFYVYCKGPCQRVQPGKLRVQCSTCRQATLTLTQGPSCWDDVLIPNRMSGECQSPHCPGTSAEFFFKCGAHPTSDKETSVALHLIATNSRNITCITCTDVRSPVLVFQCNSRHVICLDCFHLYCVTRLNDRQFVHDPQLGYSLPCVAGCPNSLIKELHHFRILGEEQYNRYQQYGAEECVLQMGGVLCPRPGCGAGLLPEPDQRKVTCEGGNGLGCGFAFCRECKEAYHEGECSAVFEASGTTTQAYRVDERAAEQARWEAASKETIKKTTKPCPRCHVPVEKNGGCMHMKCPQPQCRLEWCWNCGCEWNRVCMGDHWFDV

O=C(Cn1ccnc1-c1ccccn1)Nc1ccc(-c2ccccc2)cc1 [Compound 4]
Parkin melting temperature shift: 3 °C
